In patent US20210353633A1, “CYCLODEXTRIN-BASED FORMULATION OF A BCL-2 INHIBITOR” (LES LABORATOIRES SERVIER, priority 2018, published 2021):
Structures can show the parent of a compound that is named as a salt. Where two headings read alike, the source gives them in different places.

Experiment: Test of maximum solubility of Compound A, HCl in a HP-β-cyclodextrin as a function of the pH
Format: physicochemical
Conditions: Cavitron W7HP5 solution, aqueous with cosolvent or surfactant or cyclodextrin, thermodynamic from solid, Cavitron W7HP5 20% by weight, read-out: Solubility after 24 h
Experimental: The solubility of Compound A, HCl was studied in the presence of a HP-β-cyclodextrin as a function of the pH by means of various buffers (acetate pH=4 and phosphate pH=7.4).
0.75 g of sodium acetate trihydrate (NaC2H3O2, 3H2O) is introduced into a 250 mL graduated flask. 3.5 mL of 2 N acetic acid solution (produced from glacial acetic acid) are added. The volume is then made up to 250 mL by means of 0.9% NaCl solution, and the whole is then stirred. The pH is then adjusted to 4 by means of 1 N HCl solution.
2.075 g of monobasic potassium phosphate (KH2PO4) and 0.238 g of dibasic sodium phosphate (Na2HPO4) are dissolved in 100 mL of water. The whole is stirred until solubilisation is complete. The volume is then made up to 250 mL by means of 0.9% NaCl solution. The pH is adjusted to the desired value (7.4) by means of 1N sodium hydroxide solution.
2 g of the cyclodextrin studied (Cavitron™ W7HP5) are weighed into a 10 mL graduated flask. The volume is then made up to 10 mL by means of a water/0.9% NaCl mixture (80/20) or an acetate or phosphate buffer solution, depending on the desired pH.
Approximately 10 mg of Compound A, HCl are weighed. 1 mL of the medium containing the carrier to be tested, that is to say Cavitron™ W7HP5 without pH adjustment, Cavitron™ W7HP5 adjusted to pH=4 or Cavitron™ W7HP5 adjusted to pH=7.4, is then added. The whole is then placed under magnetic stirring. Then, 5 mg of Compound A, HCl are added. The operation is repeated if the compound solubilises. The mixture is stirred for 24 hours. The suspension so obtained is passed through a 0.45 μm filter before being analysed by HPLC chromatography.

With `Cc1c(N(C(=O)c2cc(-c3cc(Cl)ccc3C(=O)N3Cc4ccccc4C[C@H]3CN3CCOCC3)n(C)c2C)c2ccc(O)cc2)cc(C#N)n1C` [Compound A, HCl, 5-(5-chloro-2-{[(3S)-3-(morpholin-4-ylmethyl)-3,4-dihydroisoquinolin-2(1H)-yl]carbonyl}phenyl)-N-(5-cyano-1,2-dimethyl-1H-pyrrol-3-yl)-N-(4-hydroxyphenyl)-1,2-dimethyl-1H-pyrrole-3-carboxamide] as the compound, how does the solubility at 24 h (pH = 3.8, i.e. pH not adjusted) read?
Its solubility at 24 h is 24.6 mg/mL.

And the solubility at 24 h (pH = 4 (acetate buffer))?
The solubility at 24 h was 13 mg/mL.

And the solubility at 24 h (pH = 7.4 (phosphate buffer))?
Its solubility at 24 h is 1.69 mg/mL.
